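Following 48 hours of exposure in 96-well plates, responses at five concentrations were used to interpolate endpoints linearly. GI50: concentration for 50% inhibition of growth. Definition used: TGI = concentration required for complete inhibition of growth.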
Experiments:
Assay in all cases: DTP human tumour cell line panel, 48 h
UACC-257 melanoma = system: UACC-257 melanoma
MDA-MB-435 = system: MDA-MB-435
EKVX NSCLC = system: EKVX NSCLC
OVCAR-5 ovarian = system: OVCAR-5 ovarian
SK-MEL-5 melanoma = system: SK-MEL-5 melanoma
SNB-19 CNS = system: SNB-19 CNS
RPMI-8226 leukemia = system: RPMI-8226 leukemia
NCI-H460 lung = system: NCI-H460 lung
OVCAR-3 ovarian = system: OVCAR-3 ovarian
HCC-2998 colon = system: HCC-2998 colon

SMILES | GI50 (UACC-257 melanoma) [µM] | TGI (UACC-257 melanoma) [µM] | GI50 (MDA-MB-435) [µM] | TGI (MDA-MB-435) [µM] | GI50 (EKVX NSCLC) [µM] | TGI (EKVX NSCLC) [µM] | GI50 (OVCAR-5 ovarian) [µM] | TGI (OVCAR-5 ovarian) [µM] | GI50 (SK-MEL-5 melanoma) [µM] | TGI (SK-MEL-5 melanoma) [µM] | GI50 (SNB-19 CNS) [µM] | TGI (SNB-19 CNS) [µM] | GI50 (RPMI-8226 leukemia) [µM] | TGI (RPMI-8226 leukemia) [µM] | GI50 (NCI-H460 lung) [µM] | TGI (NCI-H460 lung) [µM] | GI50 (OVCAR-3 ovarian) [µM] | TGI (OVCAR-3 ovarian) [µM] | TGI (HCC-2998 colon) [µM] | GI50 (HCC-2998 colon) [µM]
COc1cccc(OC(=O)c2ccc(C(F)(F)F)nc2Nc2cc(Cl)ccc2C)c1 | 13.3 | 54.8 | 24.2 | 58.2 | 6.6 | 39.3 | 15.1 | 47.4 | 2.63 | 12.5 | > 100 | > 100 | 4.2 | 23.2 | 2.92 | 15.4 | 22.9 | 46.8 | – | –
COc1ccccc1-c1cc(=O)c2cc(C)cnc2[nH]1 | – | > 100 | – | 27.3 | – | > 100 | – | > 100 | 20.4 | > 100 | – | > 100 | – | > 100 | 32.6 | > 100 | 19.5 | 60.2 | > 100 | –
O=[N+]([O-])c1ccc(C=Cc2ccccc2)cc1.[C-]#[O+].[C-]#[O+].[C-]#[O+].[Cr] | 44.4 | > 100 | 4.81 | > 100 | 2.93 | 30 | > 100 | > 100 | 4.68 | 29.2 | > 100 | > 100 | – | – | 3.37 | 89.7 | 21.2 | > 100 | > 100 | > 100
OCC1OC(n2cnc3c(N/N=C\c4ccccn4)ncnc32)C(O)C1O (stereo not drawn) | 1.24 | 8.68 | 0.43 | > 100 | 0.49 | 97 | 0.467 | > 100 | 0.398 | 2.29 | 0.364 | > 100 | 0.736 | > 25.3 | 0.384 | 4.53 | 0.319 | 3.04 | > 100 | 0.277
CCOc1ccccc1C(=O)N1CCN(c2cc(Cl)cc(Cl)c2)CC1 | 4.19 | 25.8 | 0.0157 | 0.0527 | 0.0587 | 17.3 | 0.0552 | 16.2 | 0.0345 | 0.177 | 0.0432 | 15.8 | 0.0369 | 5.32 | 0.0362 | 11.9 | 0.0391 | 12.4 | 10.7 | 0.0381
CN1CCN(C(=O)c2cc(-c3ccc4ncnc(N5CCc6cc(F)c(Cl)cc65)c4c3)cnc2N)CC1 | 0.334 | 3.52 | 0.201 | 1.2 | 0.232 | 1.55 | 0.29 | 13.8 | 0.209 | 0.476 | 0.413 | 10.5 | 0.124 | 0.557 | 0.224 | 9.14 | 0.248 | 1.49 | 1.65 | 0.242
CC(C)NCCCn1c(Sc2cc3c(cc2I)OCO3)nc2c(N)ncnc21 | 0.308 | 13.5 | 0.0919 | 42 | 2.53 | > 100 | 3.02 | > 100 | 0.462 | 18 | 0.646 | > 100 | 1.53 | > 47.7 | 0.0576 | > 100 | 0.585 | > 100 | 11.6 | 0.28
COc1cc2c(cc1OCCCn1c(-c3ccccn3)nc3ccccc31)N=C[C@@H]1CCCN1C2=O | 2.11 | 9.42 | 1.42 | 2.91 | 5 | 40.2 | 3.41 | 9.34 | 1.57 | 2.96 | 3.61 | 18.1 | 8.8 | > 20.8 | 1.88 | 4.34 | 2.18 | 5.11 | 2.65 | 1.13
O=C(Nc1ccc(OCc2nnc(-c3ccc(Cl)cc3)o2)c(F)c1)Nc1ccc(Cl)c(C(F)(F)F)c1 | 2.71 | 11.1 | 2.62 | 11.6 | 2.64 | 10.4 | 3.66 | 17.6 | 2.01 | 4.42 | 2.92 | 18.3 | 1.82 | 8.09 | 1.85 | 4.86 | 1.7 | 5.01 | 7.98 | 3.01
NC(CSC1c2ccccc2-c2ccccc21)C(=O)O (stereo not drawn) | – | > 100 | – | > 100 | – | > 100 | – | > 100 | – | > 100 | – | > 100 | – | > 100 | – | > 100 | – | > 100 | – | –
NNC(=O)CS(=O)(=O)Nc1ncccn1 | – | > 100 | – | > 100 | – | > 100 | – | > 100 | – | > 100 | – | > 100 | – | > 100 | – | > 100 | – | > 100 | – | –
CC(=O)OC12C=C(C)C(C(C)C1)C1C(=O)N(CCN3CCOCC3)C(=O)C12 (stereo not drawn) | > 100 | > 100 | > 100 | > 100 | > 100 | > 100 | > 100 | > 100 | > 100 | > 100 | > 100 | > 100 | – | – | – | – | – | – | > 100 | > 100
O=C1c2ccccc2-c2cc([N+](=O)[O-])c([N+](=O)[O-])cc21 | – | 2.74 | – | 3.27 | – | 4.11 | – | 5.41 | – | 3.94 | – | 3.36 | – | 6.23 | – | 3.06 | – | 1.01 | – | –
O=C(O)CN1CCN(CC(=O)O)CC(=O)[O][Hg][O]C(=O)C1 | 15.4 | 28.7 | 16.2 | 30.5 | 21 | 41.5 | 18.7 | 38.5 | 20.5 | > 57 | 29.8 | > 100 | 18.2 | 50.5 | 19.8 | > 54.2 | 16.9 | 30.6 | – | –

Source: PubChem BioAssay (NCI)
